Laboratory results: PubChem BioAssay (NCI)
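Protocol summary: plate cells (96-well), add compound at 5 concentrations, incubate 48 h, interpolate endpoints linearly. GI50 is the concentration that inhibits growth by half. TGI marks complete inhibition of growth.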 Where a SMILES comes first, the peptide text is derived from it. Bridges are numbered along the chain shown (N, C = ends). The star is where a group is joined. Cbz = O=C(OCc1ccccc1)*

Columns and labels:
Assay in all cases: growth of human tumour cells (NCI), 48 h
M14 melanoma = system: M14 melanoma
HCC-2998 colon = system: HCC-2998 colon
HCT-15 colon = system: HCT-15 colon
UO-31 renal = system: UO-31 renal
SN12C renal = system: SN12C renal
OVCAR-4 ovarian = system: OVCAR-4 ovarian

Row | SMILES | TGI (M14 melanoma) | TGI (HCC-2998 colon) | TGI (HCT-15 colon) | TGI (UO-31 renal) | TGI (SN12C renal) | TGI (OVCAR-4 ovarian) | GI50 (HCC-2998 colon) | GI50 (SN12C renal)
1 | CN(Cc1cnc2nc(N)nc(N)c2n1)c1ccc(C(=O)NCCCS(=O)(=O)O)cc1 | > 100 µM | > 100 µM | > 100 µM | > 100 µM | > 100 µM | > 100 µM |  | 
2 | COc1cc2nc3n(c2cc1OC)C(O)c1c(Cl)nc(SC)nc1S3 (stereo not drawn) | 21.8 µM | 20.2 µM | 12.3 µM | 13.2 µM | 21 µM | > 39 µM |  | 
3 | COC(=O)c1c(O)c(C#N)c2[nH]c3ccccc3n2c1=O | > 100 µM | > 100 µM | > 100 µM | > 100 µM | > 100 µM | > 100 µM |  | 
4 | CCCCNC(=O)OCCN=c1c2ccccc2ccc2ccccc12 | > 100 µM | > 100 µM | > 100 µM | > 100 µM | > 100 µM | > 100 µM |  | 
5 | O=C(c1ccc2ccccc2c1)C1(I)S(=O)(=O)OCCOS1(=O)=O | > 100 µM | > 100 µM | > 100 µM | > 100 µM | > 100 µM | > 100 µM |  | 
6 | Cc1cccc(Nc2nc3ccccc3nc2NS(=O)(=O)c2ccc(N)cc2)c1 | > 100 µM | 67.6 µM | > 100 µM | 56.6 µM | > 100 µM | 42.6 µM |  | 
7 | Clc1ccc(Cc2nc3ccccc3o2)cc1 | > 100 µM | > 100 µM | > 100 µM | > 100 µM | > 100 µM | > 100 µM |  | 
8 | CC(=O)c1ccc(Br)cc1NC1=CC(=O)c2ncccc2C1=O | 10.6 µM | 8.54 µM | 10.3 µM | 15.8 µM | 19.1 µM | 11.2 µM |  | 
9 | C/C=C1/CC(C(=O)OC)N(C(=O)OCc2ccccc2)C1=S (stereo not drawn) | > 100 µM | > 100 µM | > 100 µM | > 100 µM |  | > 100 µM |  | 
10 | COc1cc([C@@H]2c3cc4c(cc3[C@H](OC3OC5COC(c6ccco6)OC5C(O)C3O)C3COC(=O)[C@@H]32)OCO4)cc(OC)c1OC (stereo partly drawn) | > 100 µM | > 100 µM | > 100 µM | > 100 µM |  | > 100 µM |  | 
11 | CCCc1nnc2sc(COc3ccc(OCc4nn5c(CCC)nnc5s4)c(Cl)c3)nn12 | 73 µM | 64.1 µM | > 100 µM | 31.8 µM | > 100 µM | 74.6 µM |  | 
12 | C=CCN1C(=O)CC2[C@@H]3CCc4cc(O)ccc4C3CC[C@]2(C)C1=O (stereo partly drawn) | > 10 µM | > 10 µM | > 10 µM | > 10 µM | > 10 µM | > 10 µM |  | 
13 | Cc1ccc(-c2n[nH]c(=O)n2/N=C\c2ccccc2O)cc1 | > 100 µM | > 100 µM | > 100 µM | > 100 µM | > 100 µM | > 100 µM |  | 
14 | COC1=C(C(c2cc(OC)c(OC)c(OC)c2)c2cc3c(cc2OC)OCO3)C(=O)OC1 (stereo not drawn) | 63.6 µM | > 100 µM | > 100 µM | 54.9 µM | > 100 µM | > 95.1 µM |  | 
15 | Cc1ccc(S(=O)(=O)n2cc(/C=C/C#N)c(-c3cn(S(=O)(=O)c4ccc(C)cc4)cc3-c3cn(S(=O)(=O)c4ccc(C)cc4)cc3/C=C/C#N)c2)cc1 | > 100 µM |  | > 100 µM | > 100 µM | > 100 µM | > 100 µM |  | 
16 | COC(=O)c1cc2ccc(O)c(O)c2cn1 | 34.6 µM | > 100 µM | 40.4 µM | 32.2 µM | 17.3 µM | 21.7 µM | > 100 µM | 5.22 µM
17 | C=C1CC[C@](C)(O)[C@@]2(C)CC[C@H]3C(=C(C)C)C(=O)C[C@]3(C)C[C@H]12 | > 50 µM | > 50 µM | 46.2 µM | > 50 µM | > 50 µM | > 50 µM |  | 
18 | COC(=O)C(=O)C(C(=O)C(=O)Nc1ccc(Cl)c(Cl)c1)c1nc2ccc(C(=O)c3ccccc3)cc2[nH]c1=O (stereo not drawn) | > 100 µM |  |  | > 100 µM | > 100 µM |  |  | 
19 | CC(C)[Si](OC12CCC(CC1O)CC2CO)(C(C)C)C(C)C (stereo not drawn) | 28.4 µM |  | 27.1 µM | 26.8 µM | 60.6 µM | 23.7 µM |  | 
20 | CC1=C(O)C(=O)C=C2C1=CC=C1[C@@]2(C)CC[C@@]2(C)C3C[C@@H](C)C(=O)[C@@H](O)[C@]3(C)CC[C@]12C (stereo partly drawn) | 3.26 µM | 9.65 µM | 3.73 µM | 3.53 µM | 4.89 µM | 11 µM |  | 
21 | O=C(CCC(=O)c1ccsc1)c1ccsc1 | > 100 µM | > 100 µM | > 100 µM | > 100 µM | > 100 µM | > 100 µM |  | 
22 | O=C1c2ccccc2-c2nnc3c(c21)Cc1ccccc1C3 | > 10 µM | > 10 µM | > 10 µM | > 10 µM | > 10 µM | > 10 µM |  | 
23 | CC1(C)CNC(=O)C2(CCCO2)CNC(C)(C)CNC(=O)C2(CCCO2)CN1 (stereo not drawn) | > 10 µM | > 10 µM | > 10 µM |  | > 10 µM | > 10 µM |  | 
24 | O=C1Cc2c(-c3cccs3)cc(-c3ccccc3)nc2-c2ccccc2N1 | > 100 µM | > 100 µM | > 100 µM | > 100 µM | > 100 µM | > 100 µM |  | 
25 | COc1cccc(OC)c1C1ON=C(c2ccccc2)N1C12CC3CC(CC(C3)C1)C2 (stereo not drawn) | > 100 µM | > 100 µM | > 100 µM | > 100 µM | > 100 µM |  |  | 
26 | CCC(C)N1CN(c2ccccc2)C2(CCN(CC3COc4ccccc4O3)CC2)C1=O (stereo not drawn) | 46.3 µM | 38.8 µM | 61.1 µM | 30.2 µM | 84.2 µM |  |  | 
27 | O=C1CSCC(=O)Nc2ccccc2N1 | > 100 µM |  | > 100 µM | > 100 µM | > 100 µM | > 100 µM |  | 
28 | CCNC1=C(NC(=O)c2ccc(F)cc2)C(=O)c2ccccc2C1=O | 63.5 µM | > 100 µM | > 100 µM |  | > 100 µM | > 100 µM |  | 
29 | CNC(=O)C1CCCCNC(=O)CCC(NC(=O)OCc2ccccc2)C(=O)N1 (stereo not drawn) (Cbz-Glu-Lys-NHMe; lactam 1-2; configuration not given here) | > 100 µM |  | > 100 µM | > 100 µM | > 100 µM | > 100 µM |  | 
30 | NC(N)=N/N=C/c1c(-c2ccccc2[N+](=O)[O-])nc2sccn12 | 31.2 µM |  | > 100 µM | 90.3 µM | > 100 µM | > 100 µM |  | 
